The text below walks through data of ChEMBL document CHEMBL5726136, “Heterocyclic compounds and methods for their use” (2017).

For the test, the target named is T1, Type-2 angiotensin II receptor (Homo sapiens, UniProt P50052).
T1 sequence (P50052 whole entry): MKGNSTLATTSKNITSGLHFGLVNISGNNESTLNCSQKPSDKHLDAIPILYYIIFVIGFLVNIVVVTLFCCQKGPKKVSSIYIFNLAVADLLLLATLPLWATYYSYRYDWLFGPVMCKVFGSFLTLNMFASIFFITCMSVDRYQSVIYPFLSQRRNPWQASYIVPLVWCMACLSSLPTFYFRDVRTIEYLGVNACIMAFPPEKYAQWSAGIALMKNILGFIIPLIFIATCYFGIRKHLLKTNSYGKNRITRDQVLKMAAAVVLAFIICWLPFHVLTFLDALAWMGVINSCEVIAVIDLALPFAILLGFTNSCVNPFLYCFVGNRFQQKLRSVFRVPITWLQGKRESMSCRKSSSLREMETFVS
The test can be described thus: Receptor Binding Assay: 120 μL membrane (5 mg protein/well) was incubated with 15 μL of [125I]-CGP42112A and 15 μL of compound at RT for 1.5 hrs.The binding reaction was stopped by rapid filtration through Unifilter GF/C plates (presoaked in 0.3% (v:v) BSA).Plate was washed three times with ice cold wash buffer.The filtration plates were dried at 37° C. overnight.50 μL of scintillation cocktail was added to each well.Radioactivity was determined using MicroBetaTriluxmicroplate scintillation counter.
For `O=C(O)[C@@H]1C[C@H](OCC#Cc2ccc(F)cc2)CCN1C(=O)C(c1ccccc1)c1ccccc1`, the IC50 was 228 nM.

Consider `CC(C)C#CCN(C)[C@H]1CCN(C(=O)C(c2ccccc2)c2ccccc2)[C@H](C(=O)O)C1`, for which the IC50 was 354 nM.

For the compound `CC(C)C#CCN(C)[C@@H]1CCN(C(=O)C(c2ccccc2)c2ccccc2)[C@H](C(=O)O)C1`, the IC50 came out at 153 nM.

For the compound `O=C(O)[C@@H]1C[C@H](OCc2ccccc2)CCN1C(=O)C(c1ccccc1)c1ccccc1`, the IC50 came to 76.7 nM.

A word on the IC50: it is the concentration that gives 50% inhibition.
